This experiment deals with interferon regulatory factor (IRF) pathway in THP1-Dual™ cells. Put plainly: THP1-Dual reporter gene assay (Agonist_THP1_EC50). The experiment is classed as cell-based. The note with it: Homo sapiens, 20-24 hrs compound treatment, Lucia luciferase (IRF) readout. The source says:
This is the cellular reporter assay to evaluate compounds' agonism to interferon regulatory factor (IRF) pathway in THP1-Dual™ cells (InvivoGen, cat number thpd-nfis). THP1-Dual™ cells were derived from the human THP-1 monocyte cell line by stable integration lucia luciferase gene, a new secreted luciferase reporter gene, under the control of an ISG54 (interferon-stimulated gene) minimal promoter in conjunction with five interferon (IFN)-stimulated response elements. As a result, THP1-Dual™ cells allow the study of the IRF pathway, by assessing the activity of Lucia luciferase. Lucia luciferase protein is readily measurable in the cell culture supernatant when using QUANTI-Luc™ (InvivoGen, cat: rep-qlcg-500).
After 20-24 hrs compound treatment in THP1-Dual cells, the compounds' agonism to IRF pathway and cell toxicity were tested by measuring luminescence and OD 450 on an Envision plate reader.
On the day of experiment, 30 μL of test medium (RPMI 1640, 2 mM L-glutamine, 25 mM HEPES, […] heat-inactivated fetal bovine serum) was dispensed in a white 384-well plate (Grenier, cat: 781098) containing the serially diluted compounds (final 1% DMSO) transferred by the Echo550 machine. Then 30 μL of cell suspension (˜33,000 cells, 1.1×10^6 cells/mL) per well was added immediately by thermo multidrop combi dispenser for incubation 20-24 h at 37° C., […]. At the end of the incubation, 10 μL of cellular supernatant was transferred to proxiplate 384-plus plate for IRF detection, and then 10 μL of QUANTI-Luc™ Gold solution was added to the plate that proceeded with the measurement immediately. To detect cell viability, 30 μL of the CCK-8 working solution (Dojindo Molecular Technologies, cat: CK04-20) was added to the cell plate, which was Incubated for 2 hrs in the incubator to measure the absorbance at 450 nm using Envision.
(In general: In a reporter assay the amount or activity of a reporter protein is the signal.)

Results on 26 compounds are retold here after US20250074913A1, “PYRAZOLE DERIVATIVES AS STING AGONISTS” (Hoffmann-La Roche Inc., priority 2022, published 2025).

Usually EC50 stands for the concentration giving half of the maximal effect. `COCCCn1nc(C)c(O)c1-c1n[nH]c(-n2nc(C(N)=O)c3cc(C)ncc32)n1` [Example 44, 1-[3-[4-hydroxy-2-(3-methoxypropyl)-5-methyl-pyrazol-3-yl]-1H-1,2,4-triazol-5-yl]-5-methyl-pyrazolo[3,4-c]pyridine-3-carboxamide] returned an EC50 of 46 nM.

As to `Cc1cc2c(C(N)=O)nn(-c3nc(-c4c(O)c(C)nn4CC4CC4)n[nH]3)c2cn1` [Example 32, 1-[3-[2-(cyclopropylmethyl)-4-hydroxy-5-methyl-pyrazol-3-yl]-1H-1,2,4-triazol-5-yl]-5-methyl-pyrazolo[3,4-c]pyridine-3-carboxamide], the EC50 was 36 nM.

Regarding `Cc1cc2c(C(N)=O)nn(-c3nc(-c4c(O)c(C)nn4CCc4ccc(C#N)cc4)n[nH]3)c2cn1` [Example 61, 1-[3-[2-[2-(4-cyanophenyl)ethyl]-4-hydroxy-5-methyl-pyrazol-3-yl]-1H-1,2,4-triazol-5-yl]-5-methyl-pyrazolo[3,4-c]pyridine-3-carboxamide], the half-maximal effective concentration (EC50) was determined as 47 nM.

In turn, `CCn1nc(C)c(O)c1-c1noc(-c2cc(C(N)=O)c3cc(C)ncn23)n1` [Example 27, 7-[3-(2-ethyl-4-hydroxy-5-methyl-pyrazol-3-yl)-1,2,4-oxadiazol-5-yl]-3-methyl-pyrrolo[1,2-c]pyrimidine-5-carboxamide] gave an EC50 of 292 nM.

In the case of `CCn1nc(C)c(O)c1-c1nc(-n2cc(C(N)=O)c3cc(C)ncc32)co1` [Example 29, 1-[2-(2-ethyl-4-hydroxy-5-methyl-pyrazol-3-yl)oxazol-4-yl]-5-methyl-pyrrolo[2,3-c]pyridine-3-carboxamide], a half-maximal response (EC50) required 618 nM.

As for `COC(=O)c1ccc(CCn2nc(C)c(O)c2-c2n[nH]c(-n3nc(C(N)=O)c4cc(C)ncc43)n2)cc1` [Example 62, Methyl 4-[2-[5-[5-(3-carbamoyl-5-methyl-pyrazolo[3,4-c]pyridin-1-yl)-1H-1,2,4-triazol-3-yl]-4-hydroxy-3-methyl-pyrazol-1-yl]ethyl]benzoate], the EC50 is 44 nM. Against the preceding compound, the EC50 is about 14-fold lower.

The compound `CCn1nc(C)c(O)c1-c1nc(-n2nc(C(N)=O)c3cc(C)ncc32)co1` [Example 21, 1-[2-(2-ethyl-4-hydroxy-5-methyl-pyrazol-3-yl)oxazol-4-yl]-5-methyl-pyrazolo[3,4-c]pyridine-3-carboxamide] gave an EC50 of 141 nM. This EC50 lies about 3.2-fold higher than the previous one.

`Cc1nn(CCC(F)F)c(-c2n[nH]c(-c3nc(C(N)=O)cc4c3cnn4C)n2)c1O` [Example 37, 4-[3-[2-(3,3-difluoropropyl)-4-hydroxy-5-methyl-pyrazol-3-yl]-1H-1,2,4-triazol-5-yl]-1-methyl-pyrazolo[4,3-c]pyridine-6-carboxamide] registered a 50% effective concentration (EC50) of 14 nM.

The compound `CCn1nc(C)c(O)c1-c1n[nH]c(-c2cc(C(N)=O)n3cc(C)ncc23)n1` [Example 3, 8-[3-(2-ethyl-4-hydroxy-5-methyl-pyrazol-3-yl)-1H-1,2,4-triazol-5-yl]-3-methyl-pyrrolo[1,2-a]pyrazine-6-carboxamide] showed an EC50 of 606 nM.

In turn, `CCCn1nc(C)c(O)c1-c1nc(-c2nc(C(N)=O)n3cc(C)ncc23)n(C)n1` [Example 92, 1-[5-(4-hydroxy-5-methyl-2-propyl-pyrazol-3-yl)-2-methyl-1,2,4-triazol-3-yl]-6-methyl-imidazo[1,5-a]pyrazine-3-carboxamide] gave an EC50 of 222 nM. This EC50 is about 2.7-fold lower than that of the compound before.

`Cc1cc2c(C(N)=O)nn(-c3nc(-c4c(O)c(C)nn4CCc4cccc(C#N)c4)n[nH]3)c2cn1` [Example 60, 1-[3-[2-[2-(3-cyanophenyl)ethyl]-4-hydroxy-5-methyl-pyrazol-3-yl]-1H-1,2,4-triazol-5-yl]-5-methyl-pyrazolo[3,4-c]pyridine-3-carboxamide] showed an EC50 of 23 nM.

For the compound `Cc1cn2c(C(N)=O)nc(-c3nc(-c4c(O)c(C)nn4CCc4cccnc4)n[nH]3)c2cn1` [Example 72, 1-[3-[4-hydroxy-5-methyl-2-[2-(3-pyridyl)ethyl]pyrazol-3-yl]-1H-1,2,4-triazol-5-yl]-6-methyl-imidazo[1,5-a]pyrazine-3-carboxamide], a half-maximal effect (EC50) was put at 15 nM.

`Cc1cc2c(C(N)=O)nn(-c3nc(-c4c(O)c(C)nn4CC=C(F)F)n[nH]3)c2cn1` [Example 63, 1-(3-(1-(3,3-difluoroallyl)-4-hydroxy-3-methyl-1H-pyrazol-5-yl)-1H-1,2,4-triazol-5-yl)-5-methyl-1H-pyrazolo[3,4-c]pyridine-3-carboxamide] yielded an EC50 of 26 nM.

Regarding `Cc1cc2c(C(N)=O)nn(-c3nc(-c4c(O)c(C)nn4CCC(F)F)n[nH]3)c2cn1` [Example 66, 1-(3-(1-(3,3-difluoropropyl)-4-hydroxy-3-methyl-1H-pyrazol-5-yl)-1H-1,2,4-triazol-5-yl)-5-methyl-1H-pyrazolo[3,4-c]pyridine-3-carboxamide], the 50% effective concentration (EC50) amounted to 27 nM.

`Cc1cn2c(C(N)=O)c(F)c(-c3nc(-c4c(O)c(C)nn4CCC#N)n[nH]3)c2cn1` [Example 30, 8-[3-[2-(2-cyanoethyl)-4-hydroxy-5-methyl-pyrazol-3-yl]-1H-1,2,4-triazol-5-yl]-7-fluoro-3-methyl-pyrrolo[1,2-a]pyrazine-6-carboxamide] came in with an EC50 of 321 nM.

As for `CCCn1nc(C)c(O)c1-c1nc(-c2nc(C(N)=O)n3cc(C)ncc23)co1` [Example 85, 1-[2-(4-hydroxy-5-methyl-2-propyl-pyrazol-3-yl)oxazol-4-yl]-6-methyl-imidazo[1,5-a]pyrazine-3-carboxamide], the response was half-maximal at 49 nM (EC50).

With `Cc1cn2c(C(N)=O)c(F)c(-c3nc(-c4c(O)c(C)nn4CCc4ccccc4)n[nH]3)c2cn1` [Example 57, 7-fluoro-8-[3-[4-hydroxy-5-methyl-2-(2-phenylethyl)pyrazol-3-yl]-1H-1,2,4-triazol-5-yl]-3-methyl-pyrrolo[1,2-a]pyrazine-6-carboxamide], the response was half-maximal at 62 nM (EC50).

Take `COCc1cccc(CCn2nc(C)c(O)c2-c2n[nH]c(-n3nc(C(N)=O)c4cc(C)ncc43)n2)c1` [Example 65, 1-[3-[4-hydroxy-2-[2-[3-(methoxymethyl)phenyl]ethyl]-5-methyl-pyrazol-3-yl]-11H-1,2,4-triazol-5-yl]-5-methyl-pyrazolo[3,4-c]pyridine-3-carboxamide]: the EC50 is 17 nM.

Regarding `COCCn1nc(C)c(O)c1-c1n[nH]c(-n2nc(C(N)=O)c3cc(C)ncc32)n1` [Example 42, 1-[3-[4-hydroxy-2-(2-methoxyethyl)-5-methyl-pyrazol-3-yl]-1H-1,2,4-triazol-5-yl]-5-methyl-pyrazolo[3,4-c]pyridine-3-carboxamide], a half-maximal effect (EC50) was put at 45 nM.

With `COc1ccc(CCn2nc(C)c(O)c2-c2n[nH]c(-c3c(F)c(C(N)=O)n4cc(C)ncc34)n2)cc1` [Example 69, 7-fluoro-8-[3-[4-hydroxy-2-[2-(4-methoxyphenyl)ethyl]-5-methyl-pyrazol-3-yl]-1H-1,2,4-triazol-5-yl]-3-methyl-pyrrolo[1,2-a]pyrazine-6-carboxamide], the response was half-maximal at 93 nM (EC50).

Compound `CCn1nc(C)c(O)c1-c1nc(-c2c(F)c(C(N)=O)n3cc(C)ncc23)co1` [Example 28, 8-[2-(2-ethyl-4-hydroxy-5-methyl-pyrazol-3-yl)oxazol-4-yl]-7-fluoro-3-methyl-pyrrolo[1,2-a]pyrazine-6-carboxamide] returned an EC50 of 134 nM.

Consider `Cc1cc2c(C(N)=O)nn(-c3nc(-c4c(O)c(C)nn4CCc4ccccc4F)n[nH]3)c2cn1` [Example 56, 1-[3-[2-[2-(2-fluorophenyl)ethyl]-4-hydroxy-5-methyl-pyrazol-3-yl]-1H-1,2,4-triazol-5-yl]-5-methyl-pyrazolo[3,4-c]pyridine-3-carboxamide], for which the EC50 turned out to be 13 nM. This EC50 is about 10-fold lower than that of the compound before.

For the compound `Cc1cc2c(C(N)=O)nn(-c3nc(-c4c(O)c(C)nn4CCc4cccnc4)n[nH]3)c2cn1` [Example 47, 1-[3-[4-hydroxy-5-methyl-2-[2-(3-pyridyl)ethyl]pyrazol-3-yl]-1H-1,2,4-triazol-5-yl]-5-methyl-pyrazolo[3,4-c]pyridine-3-carboxamide], the EC50 was 33 nM.

`Cc1cc2c(C(N)=O)nn(-c3nc(-c4c(O)c(C)nn4CCCF)n[nH]3)c2cn1` [Example 41, 1-[3-[2-(3-fluoropropyl)-4-hydroxy-5-methyl-pyrazol-3-yl]-1H-1,2,4-triazol-5-yl]-5-methyl-pyrazolo[3,4-c]pyridine-3-carboxamide]: the response was half-maximal at 48 nM (EC50). The EC50 values of the last two compounds are within 1.5-fold of each other.

Turning to `CCCCn1nc(C)c(O)c1-c1nc(-n2nc(C(N)=O)c3cc(C)ncc32)n(C)n1` [Example 49, 1-[5-(2-butyl-4-hydroxy-5-methyl-pyrazol-3-yl)-2-methyl-1,2,4-triazol-3-yl]-5-methyl-pyrazolo[3,4-c]pyridine-3-carboxamide], the EC50 was determined as 58 nM.

Compound `Cc1cn2c(C(N)=O)nc(-c3nc(-c4c(O)c(C)nn4CCc4nccs4)n[nH]3)c2cn1` [Example 90, 1-[3-[4-hydroxy-5-methyl-2-(2-thiazol-2-ylethyl)pyrazol-3-yl]-1H-1,2,4-triazol-5-yl]-6-methyl-imidazo[1,5-a]pyrazine-3-carboxamide] gave a concentration for a half-maximal effect (EC50) of 30 nM.
